Results: US20200071357A1, “ANTIMICROBIAL PEPTIDES” (UNIVERSITETET I TROMSØ - NORGES ARKTISKE UNIVERSITET, priority 2016, published 2020)
Where two headings read alike, the source gives them in different places. Where no end group is shown, it is not given here.

How the values were obtained:
Assay type in all cases: cell-based
human red blood cells = experiment: Haemolytic assay; settings: human red blood cells, one hour at 37° C.; for Haemolysis (%) 25 μM: peptide 25 μM; for Haemolysis (%) 200 μM: peptide 200 μM
Procedure: Selected synthesised peptide analogues were also screened for haemolytic activity using human red blood cells as described previously (Sperstad, S. V., et al. (2009) Dev. Comp. Immunol. 33, 583-591). The assay was performed on 96-well U-shaped microtiter plates (Nagle Nunc) with 50 μl peptide sample, 40 μl phosphate-buffered saline (PBS) and 10 μl red blood cells. After one hour of incubation at 37° C. in a shaker, the plate was centrifuged at 200 g for 5 min and the supernatants (60 μl) were carefully transferred to a new flat-bottomed polycarbonate microtiter plate (Nagle Nunc) and the release of haemoglobin (absorbance at 550 nm) was measured on a Synergy H1 multimode reader (BioTek, Vt., USA). Cell suspension added 0.05% Triton X-100 (Sigma-Aldrich, Mo., USA) in PBS served as positive (100% haemolysis) control and cell suspension added PBS served as negative (0% haemolysis, blank) control. The percent haemolysis was calculated using the formula [(Asample-Abaseline)/(Atriton-Abaseline)]×100. The cytotoxic peptide melittin (Sigma-Aldrich) was used as a positive control peptide and for comparison. The experiment was performed in triplicates with peptide concentrations ranging from 200 μM to 1.56 μM in two-fold dilutions.

Aureobasidium pullulans = settings: 24 h
Procedure: (§1) The synthetic peptides were also screened for antifungal activity against Candida albicans (ATCC 10231), Aureobasidium pullulans and Rhodotorula sp. (the last two were obtained from Professor Arne Tronsmo, The Norwegian University of Life Sciences, As, Norway). The antifungal assay was performed as previously described (Sperstad, S. V., et al. (2009) Dev. Comp. Immunol. 33, 583-591). Briefly, fungal spores were dissolved in potato dextrose broth (Difco, Lawrence, Kans., USA) to a concentration of 4×10^5 spores/ml. The spores (50 μl) were inoculated on 96-well Nunclon™ microtiter plates containing the synthetic peptides (50 μl) dissolved in MQ-H2O. […] The negative (growth) control consisted of medium and fungal solution. The peptides were tested for activity in concentrations ranging from 100 to 0.1 μM in two-fold serial dilutions. All tests were performed in triplicates.

Rhodotorula sp. = settings: 24 h
Procedure: as §1

[1] = system: Candida albicans (ATCC 10231)
Procedure: as §1

[2] = system: Escherichia coli (Ec, ATCC 25922)
Procedure: (§2) The peptides were screened for antibacterial activity against two strains of Gram-positive and two strains of Gram-negative bacteria; Corynebacterium glutamicum (Cg, ATCC 13032), Staphylococcus aureus (Sa, ATCC 9144), Pseudomonas aeruginosa (Pa, ATCC 27853) and Escherichia coli (Ec, ATCC 25922).
(§3) Cultures stored at −80° C. in glycerol were transferred to Müller-Hinton plates (MH, Difco, Lawrence, Kans., USA) and incubated for 24 h at 35° C. A few colonies of each bacterial strain were transferred to 5 ml liquid MH medium and left shaking at room temperature overnight at 600 rpm. Cultures of actively growing bacteria (20 μl) were inoculated in 5 ml MH medium and left shaking for 2 h at room temperature. The antibacterial assays were performed as previously described by Sperstad, S. V., et al. ((2009) Mol. Immunol. 46, 2604-2612) with the following exception: bacterial cultures were diluted with medium to 2.5-3×10^4 bacteria/ml concentrations. An aliquot of 50 μl (1250-1500 bacterial cells) was added to each well in 96-well Nunclon™ microtiter plates (Nagle Nunc Int., Denmark) preloaded with peptide solution (50 μl).
(§4) The microtiter plates were incubated for 24 h at 35° C. with optical density recorded every hour using an Envision 2103 multilabel reader, controlled by a Wallac Envision manager (PerkinElmer, Conn., USA). Minimum inhibitory concentration (MIC) was defined as a sample showing complete inhibition (as measured by optical density at 595 nm) compared to the negative (growth) controls, consisting of bacteria and water. Oxytetracycline (20 μM) served as a positive (inhibition) control.
(§5) The synthetic peptides were tested for antibacterial activity in concentrations ranging from 200 to 0.1 μM in two-fold dilutions. All tests were performed in triplicates.

[3] = system: Corynebacterium glutamicum (Cg, ATCC 13032)
Procedure: as §2, §3, §4, §5

[4] = system: Staphylococcus aureus (Sa, ATCC 9144)
Procedure: as §2, §3, §4, §5

[5] = system: Pseudomonas aeruginosa (Pa, ATCC 27853)
Procedure: as §2, §3, §4, §5

[6] = 24 h at 35° C., complete inhibition by OD 595 nm

GWWARTVAKVRK-NH2 [Peptide R4A, GWWARTVAKVRK-NH2]
Haemolysis (%) 25 μM (human red blood cells): 0.0%
Haemolysis (%) 200 μM (human red blood cells): 3.6%
MIC (μM) A. pullulans (Aureobasidium pullulans): 50 µM
MIC (μM) Rhodotorula sp. (Rhodotorula sp.): 50 µM
MIC (μM) C. albicans ([1]; ATCC 10231, 24 h): 25 µM
MIC (μM) Ec ([2]; ATCC 25922, 24 h): 6.3 µM
MIC (μM) Cg ([3]; ATCC 13032, 24 h): 1.6 µM
MIC (μM) Sa ([4]; ATCC 9144, 24 h): 50 µM
MIC (μM) Pa ([5]; ATCC 27853, 24 h): 12.5 µM

GWWRRWVAKVRK-NH2 [HC(1-12)W6A8K12, GWWRRWVAKVRK-NH2]
MIC (μM) A. pullulans (Aureobasidium pullulans): 50 µM
MIC (μM) C. albicans ([1]; no visible growth after 24 h at room temperature): 12.5 µM
MIC (μM) Ec [2, 6]: 1.6 µM
MIC (μM) Cg [3, 6]: 0.8 µM
MIC (μM) Sa [4, 6]: 3.1 µM
MIC (μM) Pa [5, 6]: 1.6 µM

KWWRRWVKKVRK-NH2 [HC(1-12)K1W6K8K12, KWWRRWVKKVRK-NH2]
MIC (μM) A. pullulans (Aureobasidium pullulans): 25 µM
MIC (μM) Rhodotorula sp. (Rhodotorula sp.): 3.1 µM
MIC (μM) C. albicans ([1]; ATCC 10231, 24 h): 6.3 µM
MIC (μM) Ec ([2]; ATCC 25922, 24 h): 3.1 µM
MIC (μM) Cg ([3]; ATCC 13032, 24 h): 0.4 µM
MIC (μM) Sa ([4]; ATCC 9144, 24 h): 6.3 µM
MIC (μM) Pa ([5]; ATCC 27853, 24 h): 1.6 µM

H-GWWRRTVAKVRN-NH2 [HC(1-12)A8, GWWRRTVAKVRN]
MIC (μM) Ec ([2]; ATCC 25922, 24 h): 6.3 µM
MIC (μM) Cg ([3]; ATCC 13032, 24 h): 1.6 µM
MIC (μM) Sa ([4]; ATCC 9144, 24 h): 50 µM
MIC (μM) Pa ([5]; ATCC 27853, 24 h): 6.3 µM

GWWRRTVAKVAK-NH2 [Peptide R11A, GWWRRTVAKVAK-NH2]
Haemolysis (%) 25 μM (human red blood cells): 0.0%
Haemolysis (%) 200 μM (human red blood cells): 0.0%
MIC (μM) A. pullulans (Aureobasidium pullulans): 50 µM
MIC (μM) Rhodotorula sp. (Rhodotorula sp.): 12.5 µM
MIC (μM) C. albicans ([1]; ATCC 10231, 24 h): 25 µM
MIC (μM) Ec ([2]; ATCC 25922, 24 h): 12.5 µM
MIC (μM) Cg ([3]; ATCC 13032, 24 h): 1.6 µM
MIC (μM) Sa ([4]; ATCC 9144, 24 h): 100 µM
MIC (μM) Pa ([5]; ATCC 27853, 24 h): 12.5 µM

GWWRRTVAAVRK-NH2 [Peptide K9A, GWWRRTVAAVRK-NH2]
Haemolysis (%) 25 μM (human red blood cells): 0.0%
Haemolysis (%) 200 μM (human red blood cells): 5.1%
MIC (μM) A. pullulans (Aureobasidium pullulans): 25 µM
MIC (μM) Rhodotorula sp. (Rhodotorula sp.): 12.5 µM
MIC (μM) C. albicans ([1]; ATCC 10231, 24 h): 25 µM
MIC (μM) Cg ([3]; ATCC 13032, 24 h): 1.6 µM
MIC (μM) Sa ([4]; ATCC 9144, 24 h): 100 µM

GWWRRWVKKVRK-NH2 [HC(1-12)W6K8K12, GWWRRWVKKVRK-NH2]
MIC (μM) A. pullulans (Aureobasidium pullulans): 12.5 µM
MIC (μM) Rhodotorula sp. (Rhodotorula sp.): 6.3 µM
MIC (μM) C. albicans ([1]; ATCC 10231, 24 h): 25 µM
MIC (μM) Ec ([2]; ATCC 25922, 24 h): 6.3 µM
MIC (μM) Cg ([3]; ATCC 13032, 24 h): 1.6 µM
MIC (μM) Sa ([4]; ATCC 9144, 24 h): 3.1 µM
MIC (μM) Pa ([5]; ATCC 27853, 24 h): 3.1 µM

GWWRRTVAKARK-NH2 [Peptide V10A, GWWRRTVAKARK-NH2]
Haemolysis (%) 25 μM (human red blood cells): 0.0%
Haemolysis (%) 200 μM (human red blood cells): 1.0%
MIC (μM) A. pullulans (Aureobasidium pullulans): 50 µM
MIC (μM) Rhodotorula sp. (Rhodotorula sp.): 12.5 µM
MIC (μM) C. albicans ([1]; ATCC 10231, 24 h): 25 µM
MIC (μM) Ec ([2]; ATCC 25922, 24 h): 12.5 µM
MIC (μM) Cg ([3]; ATCC 13032, 24 h): 1.6 µM
MIC (μM) Sa ([4]; ATCC 9144, 24 h): 100 µM
MIC (μM) Pa ([5]; ATCC 27853, 24 h): 6.3 µM

WWRRTVAKVRNAGRK-NH2 [HC(2-16)A7, WWRRTVAKVRNAGRK]
MIC (μM) Ec ([2]; ATCC 25922, 24 h): 6.3 µM
MIC (μM) Cg ([3]; ATCC 13032, 24 h): 0.4 µM
MIC (μM) Sa ([4]; ATCC 9144, 24 h): 12.5 µM
MIC (μM) Pa ([5]; ATCC 27853, 24 h): 25 µM

GWWRRAVAKVRK-NH2 [Peptide T6A, GWWRRAVAKVRK-NH2]
Haemolysis (%) 25 μM (human red blood cells): 0.9%
Haemolysis (%) 200 μM (human red blood cells): 4.1%
MIC (μM) A. pullulans (Aureobasidium pullulans): 25 µM
MIC (μM) Rhodotorula sp. (Rhodotorula sp.): 12.5 µM
MIC (μM) C. albicans ([1]; ATCC 10231, 24 h): 25 µM
MIC (μM) Cg ([3]; ATCC 13032, 24 h): 1.6 µM

GAWRRTVAKVRK-NH2 [Peptide W2A, GAWRRTVAKVRK-NH2]
Haemolysis (%) 25 μM (human red blood cells): 0.0%
Haemolysis (%) 200 μM (human red blood cells): 0.0%
MIC (μM) A. pullulans (Aureobasidium pullulans): 50 µM
MIC (μM) Rhodotorula sp. (Rhodotorula sp.): 25 µM
MIC (μM) C. albicans ([1]; ATCC 10231, 24 h): 50 µM
MIC (μM) Cg ([3]; ATCC 13032, 24 h): 3.1 µM
MIC (μM) Sa ([4]; ATCC 9144, 24 h): 100 µM
